What all share (assay type): functional
The subject of assay [1] is Mycobacterium tuberculosis. As to the kind of experiment: Antimycobacterial activity against multi-drug resistant Mycobacterium tuberculosis 7357/1998 after 14 days by microplate dilution method. The note with it: 7357/1998, 336 h.
The subject of assay [2] is Mycobacterium tuberculosis. As to the kind of experiment: Antimycobacterial activity against multi-drug resistant Mycobacterium tuberculosis 7357/1998 after 21 days by microplate dilution method. The note with it: 7357/1998, 504 h.
In assay [3] the test system is Mycobacterium tuberculosis. As to the kind of experiment: Antimycobacterial activity against multi-drug resistant Mycobacterium tuberculosis 234/2005 after 14 days by microplate dilution method. Particulars: 234/2005, 336 h.
In assay [4] the test system is Mycobacterium tuberculosis. As to the kind of experiment: Antimycobacterial activity against multi-drug resistant Mycobacterium tuberculosis 234/2005 after 21 days by microplate dilution method. The note with it: 234/2005, 504 h.
Assay [5] has as its system Mycobacterium tuberculosis. The assay can be described thus: Antimycobacterial activity against multi-drug resistant Mycobacterium tuberculosis 9449/2007 after 14 days by microplate dilution method. The note with it: 9449/2007, 336 h.
Assay [6] has as its system Mycobacterium tuberculosis. As to the kind of experiment: Antimycobacterial activity against multi-drug resistant Mycobacterium tuberculosis 9449/2007 after 21 days by microplate dilution method. Particulars: 9449/2007, 504 h.
The test system of assay [7] is Mycobacterium tuberculosis. The assay can be described thus: Antimycobacterial activity against multi-drug resistant Mycobacterium tuberculosis 8666/2010 after 14 days by microplate dilution method. The note with it: 8666/2010, 336 h.
For assay [8], the system named is Mycobacterium tuberculosis. The assay can be described thus: Antimycobacterial activity against multi-drug resistant Mycobacterium tuberculosis 8666/2010 after 21 days by microplate dilution method. Particulars: 8666/2010, 504 h.
Assay [9] has as its system Mycobacterium tuberculosis. The assay can be described thus: Antimycobacterial activity against multi-drug resistant Mycobacterium tuberculosis Praha 1 after 14 days by microplate dilution method. Particulars: Praha 1, 336 h.
Assay [10] has as its system Mycobacterium tuberculosis. The assay can be described thus: Antimycobacterial activity against multi-drug resistant Mycobacterium tuberculosis Praha 1 after 21 days by microplate dilution method. Particulars: Praha 1, 504 h.
For assay [11], the system named is Mycobacterium tuberculosis. As to the kind of experiment: Antimycobacterial activity against multi-drug resistant Mycobacterium tuberculosis Praha 4 after 14 days by microplate dilution method. Particulars: Praha 4, 336 h.
In assay [12] the test system is Mycobacterium tuberculosis. The assay can be described thus: Antimycobacterial activity against multi-drug resistant Mycobacterium tuberculosis Praha 4 after 21 days by microplate dilution method. The note with it: Praha 4, 504 h.
The subject of assay [13] is Mycobacterium tuberculosis. The assay can be described thus: Antimycobacterial activity against multi-drug resistant Mycobacterium tuberculosis Praha 131 after 14 days by microplate dilution method. The note with it: Praha 131, 336 h.
The subject of assay [14] is Mycobacterium tuberculosis. The assay can be described thus: Antimycobacterial activity against multi-drug resistant Mycobacterium tuberculosis Praha 131 after 21 days by microplate dilution method. Particulars: Praha 131, 504 h.

Converted amounts (≈) assume the structure as drawn.

The term MIC denotes the smallest concentration in the dilution series that meets the test's criterion for growth inhibition. Lower therefore signals greater potency.

For the compound `CCCCCCCCNc1cnc(C(=O)NCc2ccccc2)cn1`, the MIC in assay [1] was 8 µM (≈ 2.72 µg/mL); in assay [2] it was 8 µM (≈ 2.72 µg/mL); in assay [3] it was 4 µM (≈ 1.36 µg/mL); in assay [4] it was 8 µM (≈ 2.72 µg/mL); in [5] it was 8 µM (≈ 2.72 µg/mL); in assay [6], 8 µM (≈ 2.72 µg/mL). The MIC is 4 µM (≈ 1.36 µg/mL) in assay [7]; 8 µM (≈ 2.72 µg/mL) in [8]; 4 µM (≈ 1.36 µg/mL) in assay [9]; 8 µM (≈ 2.72 µg/mL) in [10]; 8 µM (≈ 2.72 µg/mL) in assay [11]; 8 µM (≈ 2.72 µg/mL) in assay [12]. In addition, the MIC in assay [13] and in assay [14] was 4 µM (≈ 1.36 µg/mL) each time.
Take `CCCCCCCCNc1nccnc1C(=O)NCc1ccccc1`: the MIC in assay [1], in assay [2], in assay [3], in assay [4], in [5] and in assay [6] was greater than 1000 µM in each case. In addition, the MIC in assay [7], in [8], in assay [9], in [10], in assay [11] and in assay [12] was greater than 1000 µM throughout. Besides, the MIC in [13] and in assay [14] was greater than 1000 µM in each case.
Consider `CCCCNc1nccnc1C(=O)NCc1ccccc1`, for which the MIC in assay [1] was found to be 125 µM (≈ 35.5 µg/mL); in [2], 250 µM (≈ 71.1 µg/mL); in [3] it was 125 µM (≈ 35.5 µg/mL); in assay [4] it was 250 µM (≈ 71.1 µg/mL); in assay [5], 125 µM (≈ 35.5 µg/mL); in [6], 250 µM (≈ 71.1 µg/mL). Further, the MIC in assay [7] came out at 125 µM (≈ 35.5 µg/mL); in [8] it was 250 µM (≈ 71.1 µg/mL); in [9], 125 µM (≈ 35.5 µg/mL); in assay [10] it was 125 µM (≈ 35.5 µg/mL); in assay [11] it was 125 µM (≈ 35.5 µg/mL); in assay [12], 125 µM (≈ 35.5 µg/mL). Moreover, the MIC in [13] came to 125 µM (≈ 35.5 µg/mL); in [14], 250 µM (≈ 71.1 µg/mL).
For the compound `NNC(=O)c1ccncc1` [ISONIAZID], the MIC in [1] came out at 16 µM (≈ 2.19 µg/mL); in [2] it was 32 µM (≈ 4.39 µg/mL); in assay [3], 16 µM (≈ 2.19 µg/mL); in [4], 16 µM (≈ 2.19 µg/mL); in [5], 16 µM (≈ 2.19 µg/mL); in [6], 16 µM (≈ 2.19 µg/mL). The MIC worked out at 16 µM (≈ 2.19 µg/mL) in assay [7]; 32 µM (≈ 4.39 µg/mL) in [8]; 16 µM (≈ 2.19 µg/mL) in [9]; 16 µM (≈ 2.19 µg/mL) in assay [10]; 16 µM (≈ 2.19 µg/mL) in [11]; 16 µM (≈ 2.19 µg/mL) in assay [12]. The MIC in [13] and in assay [14] was 16 µM (≈ 2.19 µg/mL) in each case.
As for `CCCCCNc1cnc(C(=O)NCc2ccccc2)cn1`, the MIC in [1] stood at 16 µM (≈ 4.77 µg/mL); in [2], 32 µM (≈ 9.55 µg/mL); in [3], 16 µM (≈ 4.77 µg/mL); in assay [4], 32 µM (≈ 9.55 µg/mL); in assay [5], 16 µM (≈ 4.77 µg/mL); in [6] it was 32 µM (≈ 9.55 µg/mL). The MIC in [7] stood at 16 µM (≈ 4.77 µg/mL); in assay [8], 32 µM (≈ 9.55 µg/mL); in assay [9], 16 µM (≈ 4.77 µg/mL); in assay [10], 32 µM (≈ 9.55 µg/mL); in assay [11], 16 µM (≈ 4.77 µg/mL); in assay [12] it was 32 µM (≈ 9.55 µg/mL). Further, the MIC in assay [13] and in assay [14] was 16 µM (≈ 4.77 µg/mL) each time.
Consider `CCCCNc1cncc(C(=O)NCc2ccccc2)n1`, for which the MIC amounted to 62.5 µM (≈ 17.8 µg/mL) in assay [1]; 62.5 µM (≈ 17.8 µg/mL) in [2]; 62.5 µM (≈ 17.8 µg/mL) in assay [3]; 62.5 µM (≈ 17.8 µg/mL) in [4]; 62.5 µM (≈ 17.8 µg/mL) in assay [5]; 125 µM (≈ 35.5 µg/mL) in [6]. For the same compound, the MIC in assay [7] was 62.5 µM (≈ 17.8 µg/mL); in assay [8], 62.5 µM (≈ 17.8 µg/mL); in assay [9], 62.5 µM (≈ 17.8 µg/mL); in assay [10], 62.5 µM (≈ 17.8 µg/mL); in [11] it was 32 µM (≈ 9.1 µg/mL); in assay [12], 62.5 µM (≈ 17.8 µg/mL). Further, the MIC amounted to 32 µM (≈ 9.1 µg/mL) in [13] and 62.5 µM (≈ 17.8 µg/mL) in assay [14].
In the case of `CCCCCCCNc1cnc(C(=O)NCc2ccccc2)cn1`, the MIC in assay [1] was 4 µM (≈ 1.31 µg/mL); in assay [2], 8 µM (≈ 2.61 µg/mL); in assay [3] it was 4 µM (≈ 1.31 µg/mL); in assay [4], 4 µM (≈ 1.31 µg/mL); in assay [5], 4 µM (≈ 1.31 µg/mL); in assay [6], 8 µM (≈ 2.61 µg/mL). In addition, the MIC in assay [7] was determined as 4 µM (≈ 1.31 µg/mL); in assay [8], 4 µM (≈ 1.31 µg/mL); in assay [9], 4 µM (≈ 1.31 µg/mL); in assay [10], 4 µM (≈ 1.31 µg/mL); in [11], 4 µM (≈ 1.31 µg/mL); in [12], 8 µM (≈ 2.61 µg/mL). Besides, the MIC is 2 µM (≈ 0.653 µg/mL) in [13] and 4 µM (≈ 1.31 µg/mL) in assay [14].
As for `CCCCCNc1nccnc1C(=O)NCc1ccccc1`, the MIC was 1000 µM (≈ 298 µg/mL) in assay [1]; greater than 1000 µM in assay [2]; 1000 µM (≈ 298 µg/mL) in assay [3]; greater than 1000 µM in [4]; 1000 µM (≈ 298 µg/mL) in [5]; greater than 1000 µM in assay [6]. Further, the MIC in assay [7] is 1000 µM (≈ 298 µg/mL); in [8], greater than 1000 µM; in [9], 1000 µM (≈ 298 µg/mL); in [10], greater than 1000 µM; in assay [11], 1000 µM (≈ 298 µg/mL); in [12], greater than 1000 µM. Also, the MIC in [13] was 1000 µM (≈ 298 µg/mL); in [14], greater than 1000 µM.

These data come from ChEMBL document CHEMBL3745676, “Alkylamino derivatives of N-benzylpyrazine-2-carboxamide: synthesis and antimycobacterial evaluation” (Medchemcomm, 2015).
